Measured values published in patent publication US11319303B2 (WIGEN BIOMEDICINE TECHNOLOGY (SHANGHAI) CO., LTD., priority 2017, dated 2022).

Target: LC3B (Homo sapiens, UniProt Q9GZQ8)
Assay: Fluorescence Polarization (FP) Assay: displacement of FITC-labeled peptide from GST-LC3B
Assay type: binding
Conditions: not given
Procedure: The compounds of the present invention for regulating the autophagy-related protein LC3B were tested by Fluorescence Polarization (FP) Assay.
Fluorescence Polarization (FP) Assay Test

SMILES | IC50
CN(C)CCNC=C1C(=O)CC(c2cccnc2Br)CC1=O (centres unmarked) [Compound 338, 5-(2-bromopyridin-3-yl)-2-(((2-(dimethylamino)ethyl)amino)methylene) cyclohexane-1,3-dione] | < 3 µM
CN(C)CCNC=C1C(=O)CC(c2cccc(F)c2Br)CC1=O (centres unmarked) [Compound 350, 5-(2-bromo-3-fluorophenyl)-2-(((2-(dimethylamino)ethyl)amino)methylene) cyclohexane-1,3-dione] | < 3 µM

Same assay, conditions: Fluorescence Polarization assay; GST-LC3B 180 nM, FITC-labeled peptide 18 nM, 25° C.; read-out: IC50

IC50 | SMILES
3 to 15 µM | O=C1CC(c2ccccc2)C(c2ccccc2)C(=O)C1=CNCCN1CCN(CCO)CC1 (centres unmarked) [Compound 323, 2-(((2-(4-(2-hydroxyethyl)piperazin-1-yl)ethyl)amino)methylene)-4,5-diphenylcyclo-hexane-1,3-dione]
3 to 15 µM | CC1(C)C(=O)C(=CNCCN2CCN(CCO)CC2)C(=O)CC1c1ccccc1 (centres unmarked) [Compound 324, 2-(((2-(4-(2-hydroxyethyl)piperazin-1-yl)ethyl)amino)methylene)-4,4-dimethyl-5-phenylcyclohexane-1,3-dione]
15 to 100 µM | CC1C(=O)/C(=C/NCCN2CCN(CCO)CC2)C(=O)CC1(O)c1ccccc1 (centres unmarked) [Compound 325, 5-hydroxy-2-(((2-(4-(2-hydroxyethyl)piperazin-1-yl)ethyl)amino)methylene)-4-methyl-5-phenylcyclohexane-1,3-dione]
100 to 1000 µM | O=C(NCCN1CCN(CCO)CC1)C1C(=O)Nc2ccccc2C1=O (centres unmarked) [Compound 326, N-(2-(4-(2-hydroxyethyl)piperazin-1-yl)ethyl)-2,4-dioxo-1,2,3,4-tetrahydroquinoline-3-carboxamide]
< 3 µM | N#CC1C(=O)C(=CNCCN2CCN(CCO)CC2)C(=O)CC1c1ccccc1 (centres unmarked) [Compound 327, 2-(((2-(4-(2-hydroxyethyl)piperazin-1-yl)ethyl)amino)methylene)-4-cyano-5-phenylcyclohexane-1,3-dione]
3 to 15 µM | O=C1Nc2ccc(-c3ccccc3)cc2C(=O)/C1=C/NCCN1CCN(CCO)CC1 [Compound 328, 3-(((2-(4-(2-hydroxyethyl)piperazin-1-yl)ethyl)amino)methylene)-6-phenylquinoline-2,4(1H,3H)-dione]
< 3 µM | Cc1ccc(C2CC(=O)C(=CNCCN3CCN(CCO)CC3)C(=O)C2)c(Br)c1 (centres unmarked) [Compound 329, 5-(2-bromo-4-methylphenyl)-2-(((2-(4-(2-hydroxyethyl)piperazin-1-yl)ethyl)amino)methylene) cyclohexane-1,3-dione]
3 to 15 µM | CCOC(=O)C1C(=O)/C(=C\NCCN2CCN(CCO)CC2)C(=O)CC1c1cccc2[nH]ccc12 (centres unmarked) [Compound 330, ethyl 3-(((2-(4-(2-hydroxyethyl)piperazin-1-yl)ethyl)amino)methylene)-6-(1H-indol-4-yl)-2,4-dioxocyclohexane-1-carboxylate]
< 3 µM | O=C1Nc2c(ccc3ccccc23)C(=O)/C1=C\NCCN1CCN(CCO)CC1 [Compound 331, 3-(((2-(4-(2-hydroxyethyl)piperazin-1-yl)ethyl)amino)methylene) benzo[h]quinoline-2,4(1H,3H)-dione]
< 3 µM | CN(C)c1ccc(Br)c(C2CC(=O)C(=CNCCN3CCN(CCO)CC3)C(=O)C2)c1 (centres unmarked) [Compound 332, 5-(2-bromo-5-(dimethylamino)phenyl)-2-(((2-(4-(2-hydroxyethyl)piperazin-1-yl)ethyl)amino)methylene) cyclohexane-1,3-dione]
15 to 100 µM | NC(=O)C1C(=O)C(=CNCCN2CCN(CCO)CC2)C(=O)CC1c1ccccc1 (centres unmarked) [Compound 333, 3-(((2-(4-(2-hydroxyethyl)piperazin-1-yl)ethyl)amino)methylene)-2,4-dioxo-6-phenylcyclohexane-1-carboxamide]
3 to 15 µM | CC(C)(C)OC(=O)C1C(=O)C(=CNCCN2CCN(CCO)CC2)C(=O)CC1c1ccccc1 (centres unmarked) [Compound 334, tert-butyl 3-(((2-(4-(2-hydroxyethyl)piperazin-1-yl)ethyl)amino)methylene)-2,4-dioxo-6-phenylcyclohexane-1-carboxylate]
3 to 15 µM | CCOC(=O)C1C(=O)C(=CNCCN2CCN(CCO)CC2)C(=O)CC1c1ccccc1 (centres unmarked) [Compound 335, ethyl 3-(((2-(4-(2-hydroxyethyl)piperazin-1-yl)ethyl)amino)methylene)-2,4-dioxo-6-phenylcyclohexane-1-carboxylate]
3 to 15 µM | CC1(C#N)C(=O)C(=CNCCN2CCN(CCO)CC2)C(=O)CC1c1ccccc1 (centres unmarked) [Compound 336, 3-(((2-(4-(2-hydroxyethyl)piperazin-1-yl)ethyl)amino)methylene)-1-methyl-2,4-dioxo-6-phenylcyclohexane-1-carbonitrile]
< 3 µM | COc1cccc(C2CC(=O)C(=CNCCN(C)C)C(=O)C2)c1 (centres unmarked) [Compound 337, 2-(((2-(dimethylamino)ethyl)amino)methylene)-5-(3-methoxyphenyl) cyclohexane-1,3-dione]
< 3 µM | CN(C)CCNC=C1C(=O)CC(c2ccc([N+](=O)[O-])cc2)CC1=O (centres unmarked) [Compound 340, 2-(((2-(dimethylamino)ethyl)amino)methylene)-5-(4-nitrophenyl) cyclohexane-1,3-dione]
3 to 15 µM | CN(C)CCNC=C1C(=O)CC(C(=O)Nc2ccccc2)CC1=O (centres unmarked) [Compound 343, 4-(((2-(dimethylamino)ethyl)amino)methylene)-3,5-dioxo-N-phenylcyclohexane-1-carboxamide]
3 to 15 µM | CN(C)CCNC=C1C(=O)CC(c2ccccc2N2CCOCC2)CC1=O (centres unmarked) [Compound 344]

IC50 | SMILES
3 to 15 µM | CC(=O)Nc1ccccc1C1CC(=O)C(=CNCCN(C)C)C(=O)C1 (centres unmarked) [Compound 345, N-(2-(4-(((2-(dimethylamino)ethyl)amino)methylene)-3,5-dioxocyclohexyl)phenyl) acetamide]
< 3 µM | CN(C)CCNC=C1C(=O)CC(c2cc(F)ccc2Br)CC1=O (centres unmarked) [Compound 349, 5-(2-bromo-5-fluorophenyl)-2-(((2-(dimethylamino)ethyl)amino)methylene) cyclohexane-1,3-dione]
< 3 µM | CN(C)CCNC=C1C(=O)CC(c2cc(F)ccc2Cl)CC1=O (centres unmarked) [Compound 351, 5-(2-chloro-5-fluorophenyl)-2-(((2-(dimethylamino)ethyl)amino)methylene) cyclohexane-1,3-dione]
100 to 1000 µM | O=C1CCCCC(=O)C1=CNCCN1CCN(CCO)CC1 [Compound 352, 2-(((2-(4-(2-hydroxyethyl)piperazin-1-yl)ethyl)amino)methylene) cycloheptane-1,3-dione]
< 3 µM | O=C1CC(c2cccc3[nH]cc(-c4ccccc4)c23)CC(=O)C1=CNCCN1CCN(CCO)CC1 (centres unmarked) [Compound 353, 2-(((2-(4-(2-hydroxyethyl)piperazin-1-yl)ethyl)amino)methylene)-5-(3-phenyl-1H-indol-4-yl)cyclohexane-1,3-dione]
< 3 µM | O=C1Nc2cc(C(F)(F)F)ccc2C(=O)/C1=C\NCCN1CCN(CCO)CC1 [Compound 354, 3-(((2-(4-(2-hydroxyethyl)piperazin-1-yl)ethyl)amino)methylene)-7-(trifluoromethyl) quinoline-2,4(1H,3H)-dione]
< 3 µM | O=C1CC(c2ccccc2)CC(=O)C1=CNc1cccc2c1CNC2=O (centres unmarked) [Compound 355, 2-(((1-oxoisoindolin-4-yl)amino)methylene)-5-phenylcyclohexane-1,3-dione]
< 3 µM | CN(C)CCNC=C1C(=O)CC(c2c(Cl)cccc2C(F)(F)F)CC1=O (centres unmarked) [Compound 358, 5-(2-chloro-6-(trifluoromethyl)phenyl)-2-(((2-(dimethylamino)ethyl)amino)methylene) cyclohexane-1,3-dione]
15 to 100 µM | CN(C)CCNC=C1C(=O)CC(C(=O)NCc2ccccc2)CC1=O (centres unmarked) [Compound 359, N-benzyl-4-(((2-(dimethylamino)ethyl)amino)methylene)-3,5-dioxocyclohexane-1-carboxamide]
3 to 15 µM | CN(C)CCNC=C1C(=O)CC(C(=O)Nc2ccc(Br)cc2)CC1=O (centres unmarked) [Compound 360, N-(4-bromophenyl)-4-(((2-(dimethylamino)ethyl)amino)methylene)-3,5-dioxocyclohexane-1-carboxamide]
< 3 µM | CN(C)CCNC=C1C(=O)CC(c2c(F)cccc2Cl)CC1=O (centres unmarked) [Compound 361, 5-(2-chloro-6-fluorophenyl)-2-(((2-(dimethylamino)ethyl)amino)methylene) cyclohexane-1,3-dione]
< 3 µM | CN(C)CCNC=C1C(=O)CC(c2cc(C(F)(F)F)ccc2Br)CC1=O (centres unmarked) [Compound 362, 5-(2-bromo-5-(trifluoromethyl)phenyl)-2-(((2-(dimethylamino)ethyl)amino)methylene) cyclohexane-1,3-dione]
3 to 15 µM | CN(C)CCNC=C1C(=O)CC(C(=O)Nc2ccc(Cl)cc2)CC1=O (centres unmarked) [Compound 363, N-(4-chlorophenyl)-4-(((2-(dimethylamino)ethyl)amino)methylene)-3,5-dioxocyclohexane-1-carboxamide]
< 3 µM | CN(C)CCNC=C1C(=O)CC(c2cc(Cl)cc(Cl)c2Cl)CC1=O (centres unmarked) [Compound 364, 2-(((2-(dimethylamino)ethyl)amino)methylene)-5-(2,3,5-trichlorophenyl) cyclohexane-1,3-dione]
< 3 µM | CN(C)CCNC=C1C(=O)CC(c2ccc(Br)s2)CC1=O (centres unmarked) [Compound 366, 5-(5-bromothiophen-2-yl)-2-(((2-(dimethylamino)ethyl)amino)methylene) cyclohexane-1,3-dione]
< 3 µM | CN(C)CCNC=C1C(=O)CC(c2ccc(-c3ccccc3)s2)CC1=O (centres unmarked) [Compound 367, 2-(((2-(dimethylamino)ethyl)amino)methylene)-5-(5-phenylthiophen-2-yl)cyclohexane-1,3-dione]
< 3 µM | CN(C)CCNC=C1C(=O)CC(c2ccc(F)cc2Cl)CC1=O (centres unmarked) [Compound 370, 5-(2-chloro-4-fluorophenyl)-2-(((2-(dimethylamino)ethyl)amino)methylene) cyclohexane-1,3-dione]
< 3 µM | CN(C)CCNC=C1C(=O)CC(c2cscc2-c2ccccc2)CC1=O (centres unmarked) [Compound 371, 2-(((2-(dimethylamino)ethyl)amino)methylene)-5-(4-phenylthiophen-3-yl)cyclohexane-1,3-dione]
